Experimental data taken from the Kinase Knowledgebase extract (Sharma et al. 2016).

Molecular target: PIK3CG (human) (UniProt P48736)
Assay: Assessment of PIK3CG Kinase Activity

Chain of PIK3CG (human) (P48736 whole entry, looked up): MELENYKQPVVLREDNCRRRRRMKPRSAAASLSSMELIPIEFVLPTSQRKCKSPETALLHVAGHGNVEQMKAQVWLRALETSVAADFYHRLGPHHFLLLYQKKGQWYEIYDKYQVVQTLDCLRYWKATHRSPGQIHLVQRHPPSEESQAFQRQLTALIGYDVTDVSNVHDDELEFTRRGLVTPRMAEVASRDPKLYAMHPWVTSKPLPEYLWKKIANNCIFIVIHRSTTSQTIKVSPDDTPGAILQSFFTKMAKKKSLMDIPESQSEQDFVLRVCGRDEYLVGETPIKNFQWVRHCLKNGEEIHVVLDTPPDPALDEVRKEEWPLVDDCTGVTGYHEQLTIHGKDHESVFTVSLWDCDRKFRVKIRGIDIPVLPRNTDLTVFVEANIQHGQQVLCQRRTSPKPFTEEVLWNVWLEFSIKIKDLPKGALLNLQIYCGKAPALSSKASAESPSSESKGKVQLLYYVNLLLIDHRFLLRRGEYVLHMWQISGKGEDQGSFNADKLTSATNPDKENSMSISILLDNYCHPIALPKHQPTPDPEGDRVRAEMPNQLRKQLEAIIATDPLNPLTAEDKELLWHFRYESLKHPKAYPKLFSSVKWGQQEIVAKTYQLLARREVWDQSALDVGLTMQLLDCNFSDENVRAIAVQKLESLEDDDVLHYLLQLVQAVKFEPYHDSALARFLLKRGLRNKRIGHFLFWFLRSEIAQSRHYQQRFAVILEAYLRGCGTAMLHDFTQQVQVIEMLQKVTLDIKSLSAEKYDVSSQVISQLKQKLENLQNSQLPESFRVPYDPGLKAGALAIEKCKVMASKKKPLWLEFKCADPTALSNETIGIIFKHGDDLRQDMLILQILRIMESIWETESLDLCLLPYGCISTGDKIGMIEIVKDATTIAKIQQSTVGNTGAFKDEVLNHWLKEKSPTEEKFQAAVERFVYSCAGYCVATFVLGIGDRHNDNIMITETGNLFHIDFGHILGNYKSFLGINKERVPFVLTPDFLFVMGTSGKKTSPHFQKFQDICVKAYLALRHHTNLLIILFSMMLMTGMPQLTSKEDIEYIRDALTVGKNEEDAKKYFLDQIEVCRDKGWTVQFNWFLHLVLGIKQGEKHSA

SMILES | IC50 [µM]
O=C(NCc1cccc(N2CCCCC2)c1)Nc1nc2c(s1)-c1nc(-c3ccccc3Cl)ncc1CC2 | < 0.8
COc1ccc(OC)c(CNC(=O)Nc2nc3c(s2)-c2nc(-c4ccccc4Cl)ncc2CC3)c1 | < 0.8
O=C(NCc1ccc2c(c1)OCO2)Nc1nc2c(s1)-c1nc(-c3ccccc3Cl)ncc1CC2 | < 0.8
Cc1c[nH]c(CCNC(=O)Nc2nc3c(s2)-c2nc(-c4ccccc4Cl)ncc2CC3)n1 | < 0.8
CC(C)CC(=O)N[C@H]1CCN(C(=O)Nc2nc3c(s2)-c2nc(-c4ccccc4Cl)ncc2CC3)C1 | < 0.8
CC(C)c1nnc(CCNC(=O)Nc2nc3c(s2)-c2nc(-c4ccccc4C(F)(F)F)ncc2CC3)o1 | < 0.8
CC(C)(C)CNC(=O)CCNC(=O)Nc1nc2c(s1)-c1nc(-c3ccccc3Cl)ncc1CC2 | < 0.8
CN1CCN(Cc2ccc(NC(=O)Nc3nc4c(s3)-c3nc(-c5ccccc5Cl)ncc3CC4)cc2)CC1 | < 0.8
CC(C)(C)c1ncc2c(n1)-c1sc(NC(N)=O)nc1CC2 | < 0.8
CN1CCN(C(=O)Nc2nc3c(s2)-c2nc(-c4ccccc4Cl)ncc2CC3)CC1 | < 0.8
O=C(Nc1nc2c(s1)-c1nc(-c3ccccc3Cl)ncc1CC2)N1CC[C@H](NC(=O)N2CCCC2)C1 | < 0.8

Continued, values first:

IC50 [µM] | SMILES
< 0.8 | CS(=O)(=O)N[C@H]1CCN(C(=O)Nc2nc3c(s2)-c2nc(-c4ccccc4Cl)ncc2CC3)C1
< 0.8 | O=C(NCCc1nc(C2CC2)no1)Nc1nc2c(s1)-c1nc(-c3ccccc3Br)ncc1CC2
< 0.8 | CC(C)CN(C)C(=O)N[C@H]1CCN(C(=O)Nc2nc3c(s2)-c2nc(-c4ccccc4Cl)ncc2CC3)C1
< 0.8 | CS(=O)(=O)N[C@@H]1CCN(C(=O)Nc2nc3c(s2)-c2nc(-c4ccccc4Cl)ncc2CC3)C1
< 0.8 | CC(C)NC(=O)Nc1nc2c(s1)-c1nc(-c3cccc(F)c3Cl)ncc1CC2
< 0.8 | COCCC(=O)N[C@H]1CCN(C(=O)Nc2nc3c(s2)-c2nc(-c4ccccc4Cl)ncc2CC3)C1
< 0.8 | NC(=O)Nc1nc2c(s1)-c1nc(-c3ccccc3Cl)ncc1CC2
< 0.8 | CCNC(=O)Nc1nc2c(s1)-c1nc(-c3cccc(F)c3Cl)ncc1CC2
< 0.8 | CN(C)C(=O)Nc1nc2c(s1)-c1nc(C(C)(C)C)ncc1CC2
< 0.8 | CC(C)c1noc(CCNC(=O)Nc2nc3c(s2)-c2nc(-c4ccccc4Br)ncc2CC3)n1
< 0.8 | CC(C)(C)OC(=O)N[C@H]1CC[C@H](CNC(=O)Nc2nc3c(s2)-c2nc(-c4ccccc4Cl)ncc2CC3)CC1
